Test results taken from ChEMBL document CHEMBL5244205, “Discovery of tricyclic dipyrrolopyridine derivatives as novel JAK inhibitors” (Bioorg Med Chem, 2017).

How the values were obtained:
in vitro [1] = conditions: Sprague-Dawley, rat, liver microsomes, CLH
[2] = target: Tyrosine-protein kinase JAK2 (Homo sapiens, UniProt O60674)
Description: Inhibition of human JAK2 kinase domain using biotin-Lyn-substrate-2 as substrate incubated for 1 hr by ELISA

CYP3A4 = CYP3A4 (Homo sapiens, UniProt P08684); test: in vitro; conditions: liver microsomes, probe midazolam, TDI
in vitro [3] = conditions: PAMPA, pH 6.5, permeability
Description: Permeability of the compound in pH 6.5 incubated for 2 hrs by PAMPA based HPLC analysis

[4] = target: T1, Tyrosine-protein kinase JAK3 (Homo sapiens, UniProt P52333)
T1 sequence (P52333 whole entry): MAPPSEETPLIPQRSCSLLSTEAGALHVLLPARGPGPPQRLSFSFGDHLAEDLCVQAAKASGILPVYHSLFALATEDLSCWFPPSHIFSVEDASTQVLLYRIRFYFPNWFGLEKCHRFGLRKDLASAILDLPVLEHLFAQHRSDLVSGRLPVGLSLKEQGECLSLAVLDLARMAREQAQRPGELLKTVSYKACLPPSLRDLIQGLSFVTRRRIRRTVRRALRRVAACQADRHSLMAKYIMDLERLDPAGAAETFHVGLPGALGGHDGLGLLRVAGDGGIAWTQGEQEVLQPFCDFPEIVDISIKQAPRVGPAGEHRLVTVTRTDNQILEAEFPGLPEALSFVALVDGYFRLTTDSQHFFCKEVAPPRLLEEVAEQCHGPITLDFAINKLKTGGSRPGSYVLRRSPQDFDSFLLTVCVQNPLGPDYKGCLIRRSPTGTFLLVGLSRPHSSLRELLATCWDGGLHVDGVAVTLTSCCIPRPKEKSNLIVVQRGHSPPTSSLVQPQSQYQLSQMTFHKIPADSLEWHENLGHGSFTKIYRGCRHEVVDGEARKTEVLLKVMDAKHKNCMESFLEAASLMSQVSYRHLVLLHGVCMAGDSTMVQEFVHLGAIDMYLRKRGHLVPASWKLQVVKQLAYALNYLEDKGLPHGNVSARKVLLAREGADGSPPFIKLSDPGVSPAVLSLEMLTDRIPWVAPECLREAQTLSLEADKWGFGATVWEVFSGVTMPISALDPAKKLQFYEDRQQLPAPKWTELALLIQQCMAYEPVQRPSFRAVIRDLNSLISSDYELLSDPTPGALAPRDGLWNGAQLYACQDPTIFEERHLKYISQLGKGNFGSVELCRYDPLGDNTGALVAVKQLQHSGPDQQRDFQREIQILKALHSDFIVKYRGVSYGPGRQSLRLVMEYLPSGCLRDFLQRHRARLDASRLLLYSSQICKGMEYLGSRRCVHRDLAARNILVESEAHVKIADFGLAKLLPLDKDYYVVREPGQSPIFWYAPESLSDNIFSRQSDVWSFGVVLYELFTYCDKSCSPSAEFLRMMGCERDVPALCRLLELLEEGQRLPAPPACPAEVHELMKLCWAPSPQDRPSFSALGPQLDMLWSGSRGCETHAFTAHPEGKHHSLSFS
Description: Inhibition of human JAK3 kinase domain using biotin-Lyn-substrate-2 as substrate incubated for 1 hr by ELISA

[5] = target: Tyrosine-protein kinase JAK1 (Homo sapiens, UniProt P23458)
Description: Inhibition of human JAK1 kinase domain using biotin-Lyn-substrate-2 as substrate incubated for 1 hr by ELISA

[6] = AUC (0 to 24 hrs) in Sprague-Dawley rat at 1 mg/kg, iv measured up to 24 hrs by LC-MS/MS analysis; type: ADME, organism-based; parameters: dose 1 mg/kg, time < 24 hrs, route iv; conditions: in vivo
[7] = Tmax in Sprague-Dawley rat at 1 mg/kg, po measured up to 24 hrs by LC-MS/MS analysis; type: ADME, organism-based; conditions: in vivo
[8] = Cmax in Sprague-Dawley rat at 1 mg/kg, po measured up to 24 hrs by LC-MS/MS analysis; type: ADME, organism-based; parameters: time < 24 hrs, dose 1 mg/kg, route po; conditions: in vivo
[9] = Half life in Sprague-Dawley rat at 1 mg/kg, iv measured up to 24 hrs by LC-MS/MS analysis; type: ADME, organism-based; conditions: in vivo
[10] = Volume of distribution in Sprague-Dawley rat at 1 mg/kg, iv measured up to 24 hrs by LC-MS/MS analysis; type: ADME, organism-based; conditions: in vivo
[11] = AUC (0 to 24 hrs) in Sprague-Dawley rat at 1 mg/kg, po measured up to 24 hrs by LC-MS/MS analysis; type: ADME, organism-based; parameters: dose 1 mg/kg, time < 24 hrs, route po; conditions: in vivo
[12] = Clearance in Sprague-Dawley rat at 1 mg/kg, iv measured up to 24 hrs by LC-MS/MS analysis; type: ADME, organism-based; conditions: in vivo
[13] = Oral availability in Sprague-Dawley rat at 1 mg/kg measured up to 24 hrs by LC-MS/MS analysis; type: ADME, organism-based; conditions: in vivo
[14] = Half life in Sprague-Dawley rat at 1 mg/kg, po measured up to 24 hrs by LC-MS/MS analysis; type: ADME, organism-based; conditions: in vivo
[15] = target: Tyrosine-protein kinase Lck (Homo sapiens) (UniProt P06239); test: Inhibition of LCK (unknown origin) at 1000 nM relative to control
[16] = target: Protein kinase C alpha type (Homo sapiens) (UniProt P17252); test: Inhibition of PKCalpha (unknown origin) at 1000 nM relative to control
[17] = target: Rho-associated protein kinase 1 (Homo sapiens) (UniProt Q13464); test: Inhibition of ROCK1 (unknown origin) at 1000 nM relative to control
[18] = target: Ribosomal protein S6 kinase beta-1 (Homo sapiens, UniProt P23443); test: Inhibition of p70S6K (unknown origin) at 1000 nM relative to control
[19] = target: Glycogen synthase kinase-3 beta (Homo sapiens, UniProt P49841); test: Inhibition of GSK3beta (unknown origin) at 1000 nM relative to control
[20] = target: Serine/threonine-protein kinase Chk1 (Homo sapiens) (UniProt O14757); test: Inhibition of CHK1 (unknown origin) at 1000 nM relative to control
[21] = target: Cyclin-dependent kinase 2 (Homo sapiens, UniProt P24941); test: Inhibition of CDK2 (unknown origin) at 1000 nM relative to control
[22] = target: High affinity nerve growth factor receptor (Homo sapiens, UniProt P04629); test: Inhibition of TRKA (unknown origin) at 1000 nM relative to control
[23] = target: Dual specificity mitogen-activated protein kinase kinase 1 (Homo sapiens, UniProt Q02750); test: Inhibition of MAP2K1 (unknown origin) at 1000 nM relative to control
[24] = target: Aurora kinase C (Homo sapiens) (UniProt Q9UQB9); test: Inhibition of AURC (unknown origin) at 1000 nM relative to control
[25] = target: RAC-alpha serine/threonine-protein kinase (Homo sapiens, UniProt P31749); test: Inhibition of AKT1 (unknown origin) at 1000 nM relative to control
Homo sapiens = organism: Homo sapiens; test: Selectivity index, ratio of IC50 for human JAK3 to IC50 for human JAK2
[26] = target: Calcium/calmodulin-dependent protein kinase type II subunit alpha (Homo sapiens, UniProt Q9UQM7); test: Inhibition of CAMK2alpha (unknown origin) at 1000 nM relative to control
[27] = target: Mitogen-activated protein kinase 8 (Homo sapiens, UniProt P45983); test: Inhibition of JNK1 (unknown origin) at 1000 nM relative to control
[28] = target: Proto-oncogene tyrosine-protein kinase Src (Homo sapiens, UniProt P12931); test: Inhibition of SRC (unknown origin) at 1000 nM relative to control

Chain of Tyrosine-protein kinase JAK1 (P23458 whole entry): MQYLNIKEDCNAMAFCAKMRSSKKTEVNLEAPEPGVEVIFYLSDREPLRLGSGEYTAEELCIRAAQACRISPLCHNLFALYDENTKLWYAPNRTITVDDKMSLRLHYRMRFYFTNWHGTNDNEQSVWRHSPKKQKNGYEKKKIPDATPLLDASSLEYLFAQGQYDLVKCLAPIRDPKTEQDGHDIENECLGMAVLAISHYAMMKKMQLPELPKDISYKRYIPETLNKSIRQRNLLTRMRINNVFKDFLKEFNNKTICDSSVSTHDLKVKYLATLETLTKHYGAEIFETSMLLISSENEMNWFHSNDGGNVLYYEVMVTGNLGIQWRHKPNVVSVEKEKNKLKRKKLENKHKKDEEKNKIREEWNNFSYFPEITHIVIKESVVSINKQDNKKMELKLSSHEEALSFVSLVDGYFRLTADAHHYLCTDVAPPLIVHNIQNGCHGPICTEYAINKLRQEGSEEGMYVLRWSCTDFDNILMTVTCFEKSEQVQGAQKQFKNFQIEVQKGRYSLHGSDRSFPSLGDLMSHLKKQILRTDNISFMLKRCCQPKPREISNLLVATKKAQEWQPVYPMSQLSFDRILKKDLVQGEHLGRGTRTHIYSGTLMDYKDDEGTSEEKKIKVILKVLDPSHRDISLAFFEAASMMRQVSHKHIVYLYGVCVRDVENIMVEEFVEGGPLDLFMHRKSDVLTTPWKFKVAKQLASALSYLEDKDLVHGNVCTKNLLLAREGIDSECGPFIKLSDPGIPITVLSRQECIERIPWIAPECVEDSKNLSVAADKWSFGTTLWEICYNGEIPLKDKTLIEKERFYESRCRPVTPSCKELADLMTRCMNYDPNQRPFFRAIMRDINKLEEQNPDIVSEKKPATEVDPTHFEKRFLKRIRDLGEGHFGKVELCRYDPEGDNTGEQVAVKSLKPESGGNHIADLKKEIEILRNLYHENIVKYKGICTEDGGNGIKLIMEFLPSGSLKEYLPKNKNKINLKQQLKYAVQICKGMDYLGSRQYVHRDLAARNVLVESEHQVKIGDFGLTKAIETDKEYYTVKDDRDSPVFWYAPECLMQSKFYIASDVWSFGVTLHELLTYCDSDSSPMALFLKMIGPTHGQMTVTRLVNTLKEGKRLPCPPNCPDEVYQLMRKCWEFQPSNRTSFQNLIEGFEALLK
Chain of Tyrosine-protein kinase JAK2 (O60674 whole entry): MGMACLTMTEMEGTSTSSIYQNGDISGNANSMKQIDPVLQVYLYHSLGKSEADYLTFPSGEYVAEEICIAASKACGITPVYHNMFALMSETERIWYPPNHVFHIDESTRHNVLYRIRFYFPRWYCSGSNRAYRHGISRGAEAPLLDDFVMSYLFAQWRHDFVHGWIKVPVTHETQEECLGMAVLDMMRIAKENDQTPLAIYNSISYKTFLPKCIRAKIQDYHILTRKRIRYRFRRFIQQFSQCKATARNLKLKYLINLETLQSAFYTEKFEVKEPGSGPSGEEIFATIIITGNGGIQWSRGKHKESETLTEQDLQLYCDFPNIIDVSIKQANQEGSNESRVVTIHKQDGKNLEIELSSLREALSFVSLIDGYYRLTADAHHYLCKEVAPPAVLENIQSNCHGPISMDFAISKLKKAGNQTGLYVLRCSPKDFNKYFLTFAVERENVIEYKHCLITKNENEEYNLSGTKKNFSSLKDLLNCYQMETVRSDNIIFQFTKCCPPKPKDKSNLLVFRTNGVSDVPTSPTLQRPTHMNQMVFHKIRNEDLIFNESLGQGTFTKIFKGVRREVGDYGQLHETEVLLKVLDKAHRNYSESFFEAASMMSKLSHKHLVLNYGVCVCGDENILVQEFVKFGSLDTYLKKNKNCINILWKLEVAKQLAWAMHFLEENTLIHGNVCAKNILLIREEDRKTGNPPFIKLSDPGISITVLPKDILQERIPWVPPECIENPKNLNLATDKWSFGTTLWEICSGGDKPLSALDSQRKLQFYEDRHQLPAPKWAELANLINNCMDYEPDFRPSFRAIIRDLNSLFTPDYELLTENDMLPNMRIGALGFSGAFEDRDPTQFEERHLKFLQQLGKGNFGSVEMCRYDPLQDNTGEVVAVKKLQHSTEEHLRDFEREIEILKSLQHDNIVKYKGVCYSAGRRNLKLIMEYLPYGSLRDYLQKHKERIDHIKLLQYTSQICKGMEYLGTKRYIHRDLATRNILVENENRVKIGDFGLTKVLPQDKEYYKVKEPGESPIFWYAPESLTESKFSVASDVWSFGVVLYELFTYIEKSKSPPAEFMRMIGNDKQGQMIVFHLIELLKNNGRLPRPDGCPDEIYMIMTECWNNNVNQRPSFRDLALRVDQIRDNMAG
Chain of CYP3A4 (P08684 whole entry): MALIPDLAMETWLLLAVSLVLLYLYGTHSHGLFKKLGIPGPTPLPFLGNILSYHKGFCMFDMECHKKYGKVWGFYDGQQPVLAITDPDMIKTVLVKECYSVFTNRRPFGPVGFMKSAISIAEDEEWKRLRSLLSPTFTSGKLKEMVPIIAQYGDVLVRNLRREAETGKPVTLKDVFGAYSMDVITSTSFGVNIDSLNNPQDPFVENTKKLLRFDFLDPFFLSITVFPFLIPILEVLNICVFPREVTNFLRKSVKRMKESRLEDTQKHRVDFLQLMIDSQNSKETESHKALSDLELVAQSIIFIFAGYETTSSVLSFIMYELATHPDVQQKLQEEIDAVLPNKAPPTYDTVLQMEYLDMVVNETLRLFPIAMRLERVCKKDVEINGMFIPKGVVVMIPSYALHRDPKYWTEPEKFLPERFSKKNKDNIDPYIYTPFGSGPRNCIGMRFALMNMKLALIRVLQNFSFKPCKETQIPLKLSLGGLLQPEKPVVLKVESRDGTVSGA
Chain of Tyrosine-protein kinase Lck (Homo sapiens) (P06239 2-509 limits assumed): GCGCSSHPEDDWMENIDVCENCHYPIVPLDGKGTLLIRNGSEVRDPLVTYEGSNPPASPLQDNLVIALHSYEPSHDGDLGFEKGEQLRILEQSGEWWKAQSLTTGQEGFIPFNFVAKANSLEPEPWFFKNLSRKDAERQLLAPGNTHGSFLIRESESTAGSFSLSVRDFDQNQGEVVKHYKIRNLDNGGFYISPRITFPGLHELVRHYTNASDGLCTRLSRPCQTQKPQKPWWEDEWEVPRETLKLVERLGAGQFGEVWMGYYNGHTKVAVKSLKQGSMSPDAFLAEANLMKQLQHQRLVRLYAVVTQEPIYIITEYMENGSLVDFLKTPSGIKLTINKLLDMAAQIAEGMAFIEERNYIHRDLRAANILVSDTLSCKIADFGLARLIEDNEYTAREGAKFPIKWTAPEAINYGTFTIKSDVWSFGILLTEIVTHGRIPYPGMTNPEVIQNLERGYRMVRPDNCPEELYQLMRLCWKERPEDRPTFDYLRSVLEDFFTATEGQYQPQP
Chain of Rho-associated protein kinase 1 (Homo sapiens) (Q13464 2-1354 limits assumed): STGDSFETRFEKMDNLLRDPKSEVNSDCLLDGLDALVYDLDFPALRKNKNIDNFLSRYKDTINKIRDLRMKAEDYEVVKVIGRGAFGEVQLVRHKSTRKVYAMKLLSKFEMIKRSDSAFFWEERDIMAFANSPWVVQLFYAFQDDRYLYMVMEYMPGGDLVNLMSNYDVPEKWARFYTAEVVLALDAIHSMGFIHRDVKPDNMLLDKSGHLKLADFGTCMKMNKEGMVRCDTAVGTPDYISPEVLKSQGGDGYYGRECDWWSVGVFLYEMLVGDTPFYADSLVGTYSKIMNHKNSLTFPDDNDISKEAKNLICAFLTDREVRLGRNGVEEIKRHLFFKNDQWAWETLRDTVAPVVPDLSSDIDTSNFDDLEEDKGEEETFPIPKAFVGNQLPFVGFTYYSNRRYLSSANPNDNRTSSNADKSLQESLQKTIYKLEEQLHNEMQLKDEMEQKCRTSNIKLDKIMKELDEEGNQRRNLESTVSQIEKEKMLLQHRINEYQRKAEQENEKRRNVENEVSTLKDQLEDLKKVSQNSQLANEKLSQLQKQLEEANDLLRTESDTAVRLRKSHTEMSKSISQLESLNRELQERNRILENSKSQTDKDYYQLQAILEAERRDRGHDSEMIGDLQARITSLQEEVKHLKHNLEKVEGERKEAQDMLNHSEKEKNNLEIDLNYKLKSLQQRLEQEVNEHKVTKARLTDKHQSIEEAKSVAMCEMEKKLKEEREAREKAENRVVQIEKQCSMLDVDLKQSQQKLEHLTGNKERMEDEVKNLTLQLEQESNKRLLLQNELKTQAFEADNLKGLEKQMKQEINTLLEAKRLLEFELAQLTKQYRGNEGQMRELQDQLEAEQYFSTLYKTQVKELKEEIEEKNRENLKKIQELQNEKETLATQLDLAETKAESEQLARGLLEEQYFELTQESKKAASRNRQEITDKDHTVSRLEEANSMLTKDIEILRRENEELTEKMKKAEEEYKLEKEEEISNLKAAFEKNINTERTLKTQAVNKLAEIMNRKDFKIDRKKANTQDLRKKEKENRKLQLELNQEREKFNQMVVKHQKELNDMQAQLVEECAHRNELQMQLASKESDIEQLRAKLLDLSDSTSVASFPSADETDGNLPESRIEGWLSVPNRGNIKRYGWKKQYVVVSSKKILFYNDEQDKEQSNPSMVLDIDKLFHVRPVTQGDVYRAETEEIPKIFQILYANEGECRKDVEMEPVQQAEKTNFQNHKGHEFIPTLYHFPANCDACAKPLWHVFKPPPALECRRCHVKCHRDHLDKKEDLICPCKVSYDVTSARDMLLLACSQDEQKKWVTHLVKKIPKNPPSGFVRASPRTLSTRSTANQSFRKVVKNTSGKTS
Chain of Dual specificity mitogen-activated protein kinase kinase 1 (Q02750 whole entry): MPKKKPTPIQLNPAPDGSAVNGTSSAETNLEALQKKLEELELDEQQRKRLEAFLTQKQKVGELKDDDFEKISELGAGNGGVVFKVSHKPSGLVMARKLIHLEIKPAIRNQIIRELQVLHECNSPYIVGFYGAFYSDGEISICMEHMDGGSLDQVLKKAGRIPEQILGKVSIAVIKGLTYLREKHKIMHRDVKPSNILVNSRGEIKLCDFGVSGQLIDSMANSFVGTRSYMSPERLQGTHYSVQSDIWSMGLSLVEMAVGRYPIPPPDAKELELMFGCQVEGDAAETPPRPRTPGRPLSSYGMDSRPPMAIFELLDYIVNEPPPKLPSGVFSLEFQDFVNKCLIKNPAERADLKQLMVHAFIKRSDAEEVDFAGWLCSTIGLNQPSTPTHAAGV

SMILES | CLint scaled at 0.75 h, 0.2 µM (in vitro [1]) | IC50 [2] | inhibition at 20 min, 5 µM (CYP3A4) | Papp at 2 h (in vitro [3]) | IC50 [4] | IC50 [5] | also measured
C[C@@H]1CCN(C(=O)CC#N)C[C@@H]1n1ccc2cnc3[nH]cc(C#N)c3c21 (racemic) | 419 mL/min/kg | 4.1 nM | 90% | 13 ×10⁻⁶ cm/s | 0.38 nM | – | –
C[C@@H]1CCN(C(=O)N2CCCCC2)C[C@@H]1n1c(=O)[nH]c2cnc3[nH]ccc3c21 (racemic) | 249 mL/min/kg | 7 nM | 11% | 11 ×10⁻⁶ cm/s | 2.1 nM | 13 nM | –
C[C@@H]1CCN(C(=O)CC#N)C[C@@H]1n1c(=O)[nH]c2cnc3[nH]ccc3c21 (racemic) | – | – | 90% | < 0.7 ×10⁻⁶ cm/s | – | – | AUC(0-t) at 24 h [6]: 148 ng·h/mL; Tmax [7]: 0.25 h; Cmax [8]: 2.98 ng/mL; half-life [9]: 1.13 h; Vd [10]: 3.62 L/kg; AUC(0-t) at 24 h [11]: 11.8 ng·h/mL; clearance [12]: 113 mL/min/kg; bioavailability [13]: 11.2%; half-life [14]: 11.8 h
Cc1c[nH]c2ncc3ccn([C@H]4CN(C(=O)CC#N)CC[C@H]4C)c3c12 (racemic) | 309 mL/min/kg | 4.9 nM | 62% | 23 ×10⁻⁶ cm/s | 2.5 nM | – | –
C[C@@H]1CCN(C(=O)N2CCOCC2)C[C@@H]1n1c(=O)[nH]c2cnc3[nH]ccc3c21 (racemic) | – | 12 nM | 61% | 1.3 ×10⁻⁶ cm/s | 5.5 nM | 19 nM | –
C[C@@H]1CCN(c2ccc(C#N)cn2)C[C@@H]1n1c(=O)[nH]c2cnc3[nH]ccc3c21 (racemic) | 195 mL/min/kg | 4.5 nM | 29% | 8.8 ×10⁻⁶ cm/s | 1.6 nM | 9 nM | –
C[C@@H]1CCN(C(=O)CC#N)C[C@@H]1n1ccc2cnc3[nH]ccc3c21 | – | – | – | – | – | – | inhibition [15]: 55%; inhibition [16]: 67%; inhibition [17]: 75%
C[C@@H]1CCN(C(=O)CC#N)C[C@@H]1n1ncc2cnc3[nH]ccc3c21 (racemic) | – | 11 nM | – | 5.9 ×10⁻⁶ cm/s | 4.1 nM | 7.5 nM | –
C[C@@H]1CCN(C(=O)CC#N)C[C@@H]1n1cc(C#N)c2cnc3[nH]ccc3c21 (racemic) | 47 mL/min/kg | 2.2 nM | 91% | 3.8 ×10⁻⁶ cm/s | 1.1 nM | – | –
C[C@@H]1CCN(C(=O)CC#N)C[C@@H]1n1c(=O)n(C)c2cnc3[nH]ccc3c21 (racemic) | – | – | – | 2.5 ×10⁻⁶ cm/s | – | – | –
C[C@H]1CCN(C(=O)CC#N)C[C@H]1n1ccc2cnc3[nH]ccc3c21 | 89 mL/min/kg | 390 nM | 88% | 21 ×10⁻⁶ cm/s | 200 nM | – | –
Cc1cc2cnc3[nH]ccc3c2n1[C@H]1CN(C(=O)CC#N)CC[C@H]1C (racemic) | 154 mL/min/kg | 0.3 nM | 44% | 26 ×10⁻⁶ cm/s | 0.17 nM | 0.43 nM | –
C[C@@H]1CCN(C(=O)Cn2cnnn2)C[C@@H]1n1c(=O)[nH]c2cnc3[nH]ccc3c21 (racemic) | – | 3.5 nM | 88% | < 0.8 ×10⁻⁶ cm/s | 1.4 nM | 3.2 nM | –
C[C@@H]1CCN(C(=O)CC#N)C[C@@H]1n1ccc2cnc3[nH]cc(C#N)c3c21 | – | – | – | – | – | – | inhibition [18]: 78%; inhibition [19]: 92%; inhibition [20]: 59%; inhibition [21]: 91%; inhibition [22]: 67%; inhibition [23]: 90%; inhibition [24]: 77%; inhibition [15]: 88%; inhibition [25]: 80%; Ratio IC50 (Homo sapiens): 10; inhibition [16]: 98%; inhibition [26]: 54%; inhibition [17]: 75%; inhibition [27]: 59%; inhibition [28]: 51%
C[C@@H]1CCN(C(=O)C(C)(C)C#N)C[C@@H]1n1c(=O)[nH]c2cnc3[nH]ccc3c21 (racemic) | 44 mL/min/kg | 15 nM | 18% | 6.3 ×10⁻⁶ cm/s | 7.1 nM | 58 nM | –
C[C@@H]1CCN(C(=O)CC#N)C[C@@H]1n1ccc2cnc3[nH]ccc3c21 (racemic) | 110 mL/min/kg | 1 nM | 90% | 13 ×10⁻⁶ cm/s | 0.44 nM | 1.1 nM | –
